SMILES | melting point [°C]
Cc1ccc2c(-c3cnc4[nH]cc(C(=O)N[C@H](C)C(=O)N5CC(C#N)C5)c4n3)nn(C)c2c1 | 260 to 275
CC(C)c1cc2sccc2c2c3c([nH]c12)CCNC3 | 197 to 199
CCCCCCCCCCCc1cc2ccc(C(=O)OCC(O)CO)cc2[nH]1 (racemic) | 110 to 112
O=C(c1ccc(OCCN2CCCC2)cc1)c1c(-c2ccc(O)cc2)sc2cc(O)ccc12 | 146 to 147
CS(=O)(=O)c1ccc(-c2cnn(Cc3ccc(F)cc3)c(=O)c2-c2ccc(F)cc2)cc1 | 153 to 154
COc1cc(-c2cc(C3CCOCC3)no2)cc2oc(=O)c(C)c(C)c12 | 151
CO/N=C1\CCc2ccccc2C1=Cc1ccc(S(C)(=O)=O)cc1 | 175 to 178
CCOC(=O)C(C)c1ccc2nc(N)sc2c1 (stereo not drawn) | 146
CC(NC(=O)c1cc(Cl)ccc1NC(=O)C1CC(O)=NN1c1ncccc1Cl)C1CC1 (stereo not drawn) | 165 to 167
CC(C)CC(O)(Cn1cncn1)c1ccccc1 (stereo not drawn) | 94 to 95
COC(CN1CCN(c2ccc(F)cc2)CC1)CN1c2cccc3cccc(c23)S1(=O)=O (stereo not drawn) | 128
COc1ccc(-c2cnc(S)nc2-c2ccc(OC)cc2)cc1 | 188 to 191
O=C(NC1CCCCC1)c1c(O)c2cc(F)ccc2n(Cc2ccc(F)cc2)c1=O | 118
CCCn1c(-c2ccccc2)cc(=O)c(C(=O)O)c1-c1ccccc1 | 166 to 167
COc1ccc(C(=O)O)cc1C#CCN(C)C | 167 to 170
COc1cc(Nc2nccc(-c3ccccc3)n2)cc(OC)c1OC | 187
N#CCCCCc1csc(NC(=N)N)n1 | 104 to 105
Cc1ccc(NC(=O)c2cc(Cl)cc(C)n2)nc1 | 159
NS(=O)(=O)c1ccc(N2C(=O)CN(c3ccccc3)C2=O)c(Cl)c1 | 241 to 243
COC(=O)c1cc(I)c(O)c(C(C)(C)C)c1 | 67
CC1Cc2cc3c(cc2C(c2ccc([N+](=O)[O-])cc2)=NN1C(=S)Cl)OCO3 (stereo not drawn) | 187 to 188
Fc1ccc(-c2cc(Cl)nc3ccccc23)cc1 | 118
O=C(Nc1ccc(C(CC2CCCC2)C(=O)Nc2nccs2)cc1)c1ccncc1 (stereo not drawn) | 225 to 230
Nc1nc2c(ncn2OC(CO)CCOCP(=O)(O)O)c(=O)[nH]1 (stereo not drawn) | 188 to 192
O=c1ccn(-c2cccc(C(F)(F)F)c2)nc1-c1cn(C(c2ccccc2)(c2ccccc2)c2ccccc2)nc1-c1ccccc1 | 216 to 218

SMILES | melting point [°C]
CCOC(=O)C(=CNc1ncnc2ccc([N+](=O)[O-])cc12)C(=O)OCC | 228 to 230
CCOC(=O)CCc1ccc(OC(C)C)nc1Oc1ccc(Cl)cc1Cl | 42.5 to 43.5
O=S(=O)(CCO)C(F)(F)C(O)(Cn1cncn1)c1ccc(F)cc1F (stereo not drawn) | 113 to 115
COc1cc(OC)nc(CN2C(=O)C3(COc4cc5c(cc43)OCCO5)c3ccccc32)n1 (stereo not drawn) | 169 to 170
CC1(O)OC(=O)c2ccc(Oc3ccc(C(F)(F)F)cc3Cl)cc21 (stereo not drawn) | 100 to 103
CCCc1cc(CCCOc2c(C)cc(-c3noc(C)n3)cc2C)on1 | 69 to 70
CN(C(=O)Oc1ccc([N+](=O)[O-])cc1)c1ccc(-c2ncn(-c3ccc(OC(F)(F)F)cc3)n2)cc1 | 145 to 147
CCOCc1nc2c(c3cc(OCc4ccccc4)ccc3n3nnnc23)n1CC(C)C | 184
CN1C2CCC1C(CO)C(c1ccc(I)cc1)C2 (stereo not drawn) | 90 to 92
O=S(=O)(CC(Cl)(c1ccccc1)c1cc(Cl)ccc1Cl)CC(Cl)(c1ccccc1)c1cc(Cl)ccc1Cl (stereo not drawn) | 136
O=C1c2ccccc2C(=O)N1OCC/C=C/c1cccs1 | 69 to 71
CCOC(=O)c1cn(C2CC2)c2nc(N3CCCC(n4ccnn4)C3)c(F)cc2c1=O (stereo not drawn) | 205 to 206
COCc1cc2cc(CN3CCOCC3)cc3c(=O)c(C(=O)NCc4ccc(Cl)cc4)cn1c23 | 157 to 159
FC(F)(F)c1ccccc1CC[C@H]1CNCCN1 | 43 to 47
COC(=O)c1cc(-c2ccc(C)c(C)c2)n(Cc2ccc(F)cc2)n1 | 93
CCOC(=O)COc1cc(C)c(C)c2c1CC(Br)C2=O (stereo not drawn) | 71 to 73
CCOC(=O)c1cnn2c1c(Nc1ccccc1)nc1ccccc12 | 145 to 147
CCc1c(C(=O)c2cc(C)cc(C)c2)n(C/C=C/COC)c(=O)[nH]c1=O | 142 to 143
CCN(CC)c1nc(C)nc2scnc12 | 41.6 to 43
Cc1nc2cc3c(cc2[nH]1)[nH]c(=O)n3C | 300
CC(C)(C)OC(=O)c1ncn2c1cc(C(=O)N1CCN(C3CC3)CC1)c1cc(Cl)ccc12 | 229 to 233
COc1ccc(N2CCN(c3c(C)c(C)c4c(c3C)CC(C)(C)O4)CC2)cn1 | 178 to 180
COc1nc(NC(=O)NS(=O)(=O)c2ccccc2Cl)nc2nccnc12 | 212
O=C(O)c1cn(Cc2ccc(OCc3ccccc3)cc2)nc1-c1ccccc1 | 152 to 153
CC(=O)Oc1cc(C(C)(C)C)ccc1C1(OC(C)=O)C(=O)c2ccccc2C1=O | 119 to 120

SMILES | melting point [°C]
CSc1ccc(-n2cnc3ccc(-c4nnc(CC(F)(F)F)o4)cc32)cc1 | 190 to 192
CCOC(=O)C(=C(c1ccc(F)cc1)c1ccc(F)cc1)c1nnn(C(C)(C)C)n1 | 143 to 144
c1ccc(-c2nn[nH]c2-c2ccccc2)cc1 | 131
Nc1ccc(C(=O)c2ccccc2)cc1COC1CCCCO1 (stereo not drawn) | 164
CN(c1c(Cl)cc(Cl)cc1Cl)n1cc(C#N)c(=O)n(C)c1=O | 175 to 178
CC(Oc1ncn(-c2cccc(C(F)(F)F)c2)n1)C(=O)N(C)C (stereo not drawn) | 126 to 127
CCOC(=O)C(C(=O)OCC)N(Cc1ccccc1)Cc1ccc(OC)cc1OC | 62 to 63
C[C@@H]1CCNC[C@@H]1N(C)c1ncnc2[nH]ccc12 | 158
Cc1cc2oc(=O)c3c(c2cc1[N+](=O)[O-])CCN(CCN1CC2CCC(CC2)C1)C3 | 187 to 188
COc1ccc(CNc2ccccc2C(=O)Nc2ccc(Br)c(C(F)(F)F)c2)cn1 | 101 to 103
CN(CC(=O)C(Cc1c[nH]c2ccccc12)NC(=O)c1ccccc1)C(=O)N1CCCC1C(=O)O (stereo not drawn) | 102 to 128
CS(=O)(=O)Oc1ccc(C(c2ccc(OS(C)(=O)=O)c([N+](=O)[O-])c2)(C(F)(F)F)C(F)(F)F)cc1[N+](=O)[O-] | 119 to 121
CSc1ccc(-c2cnc3ccc(-c4nnc(C)o4)cn23)cc1 | 180 to 181
Cc1c(C)c(N2CCN(c3ccnn3C)CC2)c(C)c2c1OC(C)(C)C2 | 126 to 128
COc1ccc2[nH]cc(C3=CCN(C)CC3)c2n1 | 203
NCC(CC(=O)O)c1ccc(Cl)c(Cl)c1 (stereo not drawn) | 202 to 204
CCOC(=O)CN1C(=O)COc2cc(N)ccc21 | 136 to 137
C=CC(=O)NCCCCCCCCCCCCOc1ccccc1 | 69 to 71
CCCc1nc2c(N)nc3ccccc3c2n1CC1(O)CCCCC1 | 250 to 252
CC(C)(C)c1cc(P(c2ccccc2)c2ccccc2)cc(C(C)(C)C)c1O | 92 to 93
Cn1cc(OCC(F)(F)F)c(=O)c(-c2cccc(C(F)(F)F)c2)c1 | 97 to 99
COc1cccc2c1CCc1c-2nc2ccccc2c1N | 126 to 129
CC(C)C[C@@H](C(=O)N1CCN(C(c2ccc(F)cc2)c2ccc(F)cc2)CC1)N(C)C1CCOCC1 | 56 to 65
Nc1cccc(-c2ccc(CCN3CCN(c4nc(-c5ccccc5)cs4)CC3)cc2)n1 | 158 to 161
Cc1ccc2c(c1)CC(=O)c1cc(C(C)C(=O)O)ccc1S2 (stereo not drawn) | 157 to 159

SMILES | melting point [°C]
O=C(O)C(=O)c1ccc(OCCOc2cccc3ccccc23)cc1 | 124 to 125
O=C(Nc1cccnc1)N1CCN(c2cc(-c3ccc(F)cc3)ncn2)CC1 | 180 to 182
Cc1cc2cccc([C@H](O)CO)c2nc1-c1ccccc1 | 117
Cc1ccccc1OC1CCN(CCc2c[nH]c3ccccc23)CC1 | 88 to 90
N#Cc1c(N)ccc(C(=O)CBr)c1Cl | 180 to 207
O=C(O)COC(=O)c1c(Cl)cccc1Cl | 180 to 182
CCCC(=O)N1CCc2cc(S(=O)(=O)N3CCN(c4cccc(Cl)c4)CC3)ccc21 | 267 to 268
O=C1Cc2ccccc2Sc2cc(F)c(F)cc21 | 110 to 112
CC(=O)Oc1c(C)c2c(c3ccccc13)OCC2c1ccc(C(C)C)cc1 (stereo not drawn) | 109 to 110
Cc1ccc(CN2C(=O)c3cccc4cccc2c34)cc1 | 108 to 110
CN(C)C1(c2ccccc2)CCC(CNC(=O)N2CCC(c3c[nH]c4ccccc34)CC2)CC1 (stereo not drawn) | 104 to 107
CNC(=O)CCSSCCC(=O)NC | 113 to 115
Cc1csc(C2=C(c3ccc(S(C)(=O)=O)cc3)CCC2)c1 | 138 to 139
CCOc1cc(NC(=O)NS(=O)(=O)c2ccc(C)cc2)cc(OCC)n1 | > 270
CCCCOc1cc(/C=C(\OCC)C(=O)O)ccc1OCCc1ccc(NC(=O)CC)cc1 | 164
COc1cc(C(=O)N2CCC(CCN3CCC(C(=O)c4nc5ccccc5n4Cc4ccc(F)cc4)CC3)(c3ccc(F)cc3F)C2)cc(OC)c1OC (stereo not drawn) | 58 to 60
CCCCCCCCCCCCCCCCCCNC(=O)OCC1(CO)CCCO1 (stereo not drawn) | 57 to 58
CCOc1nn(-c2ccc(C(F)(F)F)cn2)cc1CCCOc1cc(OC)ccc1CC(=O)O | 147 to 148
O=C(NNC(=O)c1ccccc1O)c1ccccc1O | 303
Cc1c(Cc2ccccc2)c(=O)oc2cc(O)cc(O)c12 | 258 to 260
COc1ccnc(C(C)Sc2nc3cc4c(cc3[nH]2)OC(F)(F)O4)c1 (stereo not drawn) | 173 to 175
COC(=O)C1(C(N)=O)C(C(N)=O)=NC(c2ccccc2)=C1N (stereo not drawn) | 177 to 179
CC(C)(C)Nc1nc(NCc2ccccc2)c(C#N)cc1F | 138 to 140
